What is called IC50 is the midpoint of a concentration-inhibition curve. As a reminder, the inhibition in vivo is the percentage by which the read-out fell short of the control. The clearance is a measure of how efficiently the substance is removed, as volume per time. The low end stands for a low capacity for elimination, the high end for a high capacity for elimination. One may read the Ki as a measure of affinity in units of concentration, obtained from inhibition or displacement. The bioavailability is dose-corrected exposure relative to a reference, in per cent. A low value points to little systemic uptake.

In data set [1] the target is Non-receptor tyrosine-protein kinase TYK2 (Homo sapiens, UniProt P29597). As to the kind of experiment: Inhibition of human recombinant N-terminal GST-tagged TYK2 (833 to 1187 residues) expressed in baculovirus expression system by Z'-lyte assay.
Non-receptor tyrosine-protein kinase TYK2, sequence (P29597 whole entry, the tested form may be a part): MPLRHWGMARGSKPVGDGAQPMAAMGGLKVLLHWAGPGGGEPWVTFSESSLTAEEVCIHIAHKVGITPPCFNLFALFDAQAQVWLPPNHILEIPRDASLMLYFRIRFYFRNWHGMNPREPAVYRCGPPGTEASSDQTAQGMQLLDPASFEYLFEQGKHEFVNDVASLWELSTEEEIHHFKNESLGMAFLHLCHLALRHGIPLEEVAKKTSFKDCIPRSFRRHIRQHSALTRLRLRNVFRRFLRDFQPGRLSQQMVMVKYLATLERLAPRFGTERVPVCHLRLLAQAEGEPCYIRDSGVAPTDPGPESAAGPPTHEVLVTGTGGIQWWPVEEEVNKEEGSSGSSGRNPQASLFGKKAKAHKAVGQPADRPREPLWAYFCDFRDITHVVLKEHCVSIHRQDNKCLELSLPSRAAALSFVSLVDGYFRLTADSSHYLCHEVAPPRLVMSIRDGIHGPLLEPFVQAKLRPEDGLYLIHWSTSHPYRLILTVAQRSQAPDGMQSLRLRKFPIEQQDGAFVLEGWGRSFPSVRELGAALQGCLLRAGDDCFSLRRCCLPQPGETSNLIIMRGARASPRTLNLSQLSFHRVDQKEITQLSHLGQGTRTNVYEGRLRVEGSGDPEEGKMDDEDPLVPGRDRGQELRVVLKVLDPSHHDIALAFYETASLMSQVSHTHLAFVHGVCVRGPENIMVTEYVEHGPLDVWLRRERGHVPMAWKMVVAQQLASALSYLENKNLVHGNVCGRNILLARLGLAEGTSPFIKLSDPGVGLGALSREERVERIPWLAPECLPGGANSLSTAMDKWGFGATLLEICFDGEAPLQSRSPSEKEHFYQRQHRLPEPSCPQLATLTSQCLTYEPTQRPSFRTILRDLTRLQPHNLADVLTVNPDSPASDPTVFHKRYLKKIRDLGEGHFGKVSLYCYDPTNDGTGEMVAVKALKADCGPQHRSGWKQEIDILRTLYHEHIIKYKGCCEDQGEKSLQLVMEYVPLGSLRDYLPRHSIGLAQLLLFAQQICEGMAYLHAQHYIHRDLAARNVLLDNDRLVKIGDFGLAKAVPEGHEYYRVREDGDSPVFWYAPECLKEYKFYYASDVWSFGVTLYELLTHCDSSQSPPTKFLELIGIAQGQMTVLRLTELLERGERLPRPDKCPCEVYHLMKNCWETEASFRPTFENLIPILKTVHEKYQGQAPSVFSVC
Data set [2] addresses T1, Tyrosine-protein kinase JAK2 (Homo sapiens, UniProt O60674). Description: Inhibition of JAK2 signaling pathway in human CHEP cells assessed as inhibition of EPO-induced cell survival preincubated for 1 hr followed by EPO addition and measured after 48 hrs by CellTiter-Glo luminescent assay. The class given is toxicity, cell-based. (Cellular ATP, detected with luciferase, serves as a proxy for viable cell number.)

Data set [3] in a line: Inhibition of IL-2 stimulated IFN-gamma production in BALB/c mouse at 20 mg/kg, po pretreated for 30 mins followed by IL-2 stimulation and measured after 4 hrs by ELISA. In kind it is functional. The note with it: time 4.5 hrs. A general note: ELISA stands for enzyme-linked immunosorbent assay.
Data set [4] in a line: Inhibition of IL-2 stimulated IFN-gamma production in BALB/c mouse at 5 mg/kg, po pretreated for 30 mins followed by IL-2 stimulation and measured after 4 hrs by ELISA. The class given is functional. The note with it: time 4.5 hrs.
The target in data set [5] is T2, Cytochrome P450 3A4 (Homo sapiens, UniProt P08684). Description: Inhibition of CYP3A4 (unknown origin) in absence of NADPH. In kind it is ADME.
T2 sequence (P08684 whole entry): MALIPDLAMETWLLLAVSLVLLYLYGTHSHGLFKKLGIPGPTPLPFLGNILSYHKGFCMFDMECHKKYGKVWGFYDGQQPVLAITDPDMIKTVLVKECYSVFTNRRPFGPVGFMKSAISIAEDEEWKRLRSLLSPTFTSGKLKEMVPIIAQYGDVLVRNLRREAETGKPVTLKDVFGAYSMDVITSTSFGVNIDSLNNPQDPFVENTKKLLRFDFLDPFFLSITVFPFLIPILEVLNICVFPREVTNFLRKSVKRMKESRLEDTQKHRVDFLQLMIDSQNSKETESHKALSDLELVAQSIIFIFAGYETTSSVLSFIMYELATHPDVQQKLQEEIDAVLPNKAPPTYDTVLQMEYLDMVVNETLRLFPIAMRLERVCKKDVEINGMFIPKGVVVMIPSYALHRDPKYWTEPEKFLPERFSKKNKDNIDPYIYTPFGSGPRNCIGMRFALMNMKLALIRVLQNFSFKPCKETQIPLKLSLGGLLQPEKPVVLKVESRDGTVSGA
Data set [6] is described as follows: Inhibition of IL-2 stimulated IFN-gamma production in BALB/c mouse at 2.5 mg/kg, po pretreated for 30 mins followed by IL-2 stimulation and measured after 4 hrs by ELISA. The note with it: time 4.5 hrs. The class given is functional.
Another data set deals with JAK2/JAK1 (Homo sapiens, UniProt O60674+P23458). Description: Inhibition of JAK1/JAK2 signaling pathway in human U-937 cells assessed as reduction of IFN-gamma induced ICAM1 expression. In kind it is cell-based.
JAK2/JAK1, sequence (P23458 whole entry): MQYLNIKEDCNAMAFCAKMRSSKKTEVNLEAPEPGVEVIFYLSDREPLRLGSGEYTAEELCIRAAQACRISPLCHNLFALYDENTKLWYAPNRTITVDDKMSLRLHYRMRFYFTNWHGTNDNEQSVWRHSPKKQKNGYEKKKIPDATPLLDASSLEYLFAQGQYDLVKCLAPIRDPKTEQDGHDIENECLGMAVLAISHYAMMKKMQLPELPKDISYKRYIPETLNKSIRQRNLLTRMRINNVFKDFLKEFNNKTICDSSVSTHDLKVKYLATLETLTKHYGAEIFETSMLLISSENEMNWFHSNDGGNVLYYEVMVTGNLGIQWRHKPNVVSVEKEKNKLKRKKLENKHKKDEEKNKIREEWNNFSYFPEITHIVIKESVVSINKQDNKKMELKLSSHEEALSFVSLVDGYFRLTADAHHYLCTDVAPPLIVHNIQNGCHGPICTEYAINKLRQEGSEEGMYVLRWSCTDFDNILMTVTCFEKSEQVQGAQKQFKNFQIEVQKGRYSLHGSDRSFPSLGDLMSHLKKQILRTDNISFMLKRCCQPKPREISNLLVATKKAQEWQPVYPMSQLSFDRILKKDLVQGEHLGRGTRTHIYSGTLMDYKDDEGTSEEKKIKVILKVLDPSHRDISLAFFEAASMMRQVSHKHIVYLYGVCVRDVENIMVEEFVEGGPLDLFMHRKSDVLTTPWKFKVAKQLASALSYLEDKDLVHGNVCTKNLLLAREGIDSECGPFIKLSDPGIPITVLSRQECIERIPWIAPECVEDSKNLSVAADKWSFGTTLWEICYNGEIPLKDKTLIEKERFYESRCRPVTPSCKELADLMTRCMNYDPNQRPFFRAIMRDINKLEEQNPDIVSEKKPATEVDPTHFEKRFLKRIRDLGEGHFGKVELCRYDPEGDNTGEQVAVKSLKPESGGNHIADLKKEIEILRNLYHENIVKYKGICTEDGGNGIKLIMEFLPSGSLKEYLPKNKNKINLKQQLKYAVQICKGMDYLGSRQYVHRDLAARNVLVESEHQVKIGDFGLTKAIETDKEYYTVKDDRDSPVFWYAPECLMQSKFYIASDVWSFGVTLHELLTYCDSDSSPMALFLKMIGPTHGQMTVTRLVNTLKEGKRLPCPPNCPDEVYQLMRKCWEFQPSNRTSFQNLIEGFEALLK
JAK2/JAK1, sequence (O60674 whole entry): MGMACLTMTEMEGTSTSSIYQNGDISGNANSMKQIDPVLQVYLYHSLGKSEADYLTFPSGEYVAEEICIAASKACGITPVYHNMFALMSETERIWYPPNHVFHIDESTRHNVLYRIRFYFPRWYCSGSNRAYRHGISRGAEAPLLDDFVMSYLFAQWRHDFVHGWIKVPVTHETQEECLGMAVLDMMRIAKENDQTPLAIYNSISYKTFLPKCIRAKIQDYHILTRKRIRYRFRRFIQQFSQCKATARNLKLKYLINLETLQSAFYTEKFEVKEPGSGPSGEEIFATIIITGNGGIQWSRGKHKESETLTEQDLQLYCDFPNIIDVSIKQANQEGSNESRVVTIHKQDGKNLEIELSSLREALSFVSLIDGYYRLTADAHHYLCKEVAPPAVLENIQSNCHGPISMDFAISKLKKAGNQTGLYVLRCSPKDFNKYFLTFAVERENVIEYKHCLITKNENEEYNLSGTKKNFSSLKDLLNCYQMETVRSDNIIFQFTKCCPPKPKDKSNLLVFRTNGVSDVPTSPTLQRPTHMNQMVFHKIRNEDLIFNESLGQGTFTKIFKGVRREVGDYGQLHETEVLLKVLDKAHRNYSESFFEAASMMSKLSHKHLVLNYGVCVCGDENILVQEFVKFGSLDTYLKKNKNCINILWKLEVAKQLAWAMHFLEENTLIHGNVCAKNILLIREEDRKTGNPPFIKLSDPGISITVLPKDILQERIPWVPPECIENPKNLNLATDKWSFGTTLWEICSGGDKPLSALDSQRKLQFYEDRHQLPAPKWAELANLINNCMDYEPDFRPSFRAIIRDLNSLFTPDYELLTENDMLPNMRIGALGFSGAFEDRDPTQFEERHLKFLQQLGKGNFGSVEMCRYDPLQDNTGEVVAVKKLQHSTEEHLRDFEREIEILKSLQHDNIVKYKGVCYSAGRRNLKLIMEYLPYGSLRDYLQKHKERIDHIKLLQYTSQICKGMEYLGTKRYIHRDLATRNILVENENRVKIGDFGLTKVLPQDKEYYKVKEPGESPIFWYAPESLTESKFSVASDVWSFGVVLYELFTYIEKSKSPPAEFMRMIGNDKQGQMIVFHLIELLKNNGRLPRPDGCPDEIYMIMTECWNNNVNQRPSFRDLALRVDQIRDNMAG
Data set [7] is described as follows: Clearance in Sprague-Dawley rat 1 mg/kg, iv. The class given is ADME, organism-based. The note with it: in vivo.
Data set [8] deals with T1, Tyrosine-protein kinase JAK2. Description: Inhibition of human recombinant GST-tagged JAK2 catalytic domain (809 to 1153 residues) expressed in baculovirus expression system by Z'-lyte assay. In kind it is toxicity.
The target of data set [9] is T3, JAK3/JAK1 (Homo sapiens, UniProt P23458+P52333). Description: Inhibition of JAK1/JAK3 in human primary T-cells assessed as reduction of IL-2 stimulated STAT5 phosphorylation preincubated for 1 hr followed by IL-2 stimulation for 15 mins by FACS method. In kind it is cell-based, T-cell. For orientation: In flow cytometry, cells or beads pass a laser one at a time.
T3 sequence (P23458 whole entry, one chain of several): as the sequence (P23458 whole entry) above

In a further data set the target is T4, Cytochrome P450 1A2 (Homo sapiens, UniProt P05177).
T4 sequence (P05177 whole entry): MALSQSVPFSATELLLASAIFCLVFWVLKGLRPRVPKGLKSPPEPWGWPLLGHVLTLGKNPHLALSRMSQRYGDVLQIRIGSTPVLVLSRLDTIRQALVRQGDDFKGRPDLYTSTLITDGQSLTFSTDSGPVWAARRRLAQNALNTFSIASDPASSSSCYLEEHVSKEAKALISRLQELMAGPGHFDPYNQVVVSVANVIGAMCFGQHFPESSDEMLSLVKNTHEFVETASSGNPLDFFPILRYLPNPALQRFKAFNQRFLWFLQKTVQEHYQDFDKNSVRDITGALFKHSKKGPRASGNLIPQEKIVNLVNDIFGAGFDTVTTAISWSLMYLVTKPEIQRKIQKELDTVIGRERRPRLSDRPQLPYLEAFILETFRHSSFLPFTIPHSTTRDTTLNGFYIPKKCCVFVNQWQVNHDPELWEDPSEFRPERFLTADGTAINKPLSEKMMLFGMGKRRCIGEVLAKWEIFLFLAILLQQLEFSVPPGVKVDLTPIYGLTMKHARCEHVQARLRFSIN
Description: Inhibition of CYP1A2 (unknown origin). The class given is ADME.

Data set [10] is described as follows: Inhibition of IL-2 stimulated IFN-gamma production in BALB/c mouse at 40 mg/kg, po pretreated for 30 mins followed by IL-2 stimulation and measured after 4 hrs by ELISA. The class given is functional. The note with it: time 4.5 hrs.
Data set [11] concerns the target T5, Tyrosine-protein kinase JAK3 (Homo sapiens, UniProt P52333).
T5 sequence (P52333 whole entry): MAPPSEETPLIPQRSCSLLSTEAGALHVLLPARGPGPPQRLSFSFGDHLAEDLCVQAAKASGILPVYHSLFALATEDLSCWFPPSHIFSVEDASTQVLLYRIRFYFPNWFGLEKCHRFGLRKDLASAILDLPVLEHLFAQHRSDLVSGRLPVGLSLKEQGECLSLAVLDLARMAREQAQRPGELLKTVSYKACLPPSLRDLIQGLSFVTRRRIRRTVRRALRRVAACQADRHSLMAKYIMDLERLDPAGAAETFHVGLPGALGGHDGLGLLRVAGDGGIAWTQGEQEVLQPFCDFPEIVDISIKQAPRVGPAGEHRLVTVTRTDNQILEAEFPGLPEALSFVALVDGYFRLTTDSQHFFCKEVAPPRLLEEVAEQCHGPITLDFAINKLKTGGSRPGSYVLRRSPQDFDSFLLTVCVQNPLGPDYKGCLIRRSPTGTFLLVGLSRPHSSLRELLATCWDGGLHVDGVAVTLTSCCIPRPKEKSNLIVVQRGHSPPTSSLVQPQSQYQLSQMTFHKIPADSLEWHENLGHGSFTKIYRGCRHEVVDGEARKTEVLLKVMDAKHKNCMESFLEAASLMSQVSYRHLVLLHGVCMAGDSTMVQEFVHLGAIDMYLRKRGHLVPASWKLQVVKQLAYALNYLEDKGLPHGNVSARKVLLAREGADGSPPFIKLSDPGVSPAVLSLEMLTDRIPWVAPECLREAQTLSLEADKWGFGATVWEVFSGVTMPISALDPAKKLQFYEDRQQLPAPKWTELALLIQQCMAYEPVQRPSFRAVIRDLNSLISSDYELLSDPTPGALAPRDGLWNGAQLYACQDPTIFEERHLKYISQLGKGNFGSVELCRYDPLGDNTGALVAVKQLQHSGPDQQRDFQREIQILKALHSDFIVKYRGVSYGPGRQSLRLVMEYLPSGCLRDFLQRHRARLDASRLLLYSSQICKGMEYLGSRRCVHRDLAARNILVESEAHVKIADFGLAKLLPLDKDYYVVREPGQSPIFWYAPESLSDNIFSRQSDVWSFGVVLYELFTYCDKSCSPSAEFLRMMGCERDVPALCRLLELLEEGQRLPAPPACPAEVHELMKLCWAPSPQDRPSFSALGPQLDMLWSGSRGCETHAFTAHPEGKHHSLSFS
As to the kind of experiment: Inhibition of human recombinant GST-tagged JAK3 catalytic domain (781 to 1124 residues) expressed in baculovirus expression system by Z'-lyte assay.

Data set [12] deals with T2, Cytochrome P450 3A4. Description: Inhibition of CYP3A4 (unknown origin) in presence of NADPH. The class given is ADME.
The next data set has as its target JAK1/TYK2 (Homo sapiens, UniProt P23458+P29597). Description: Inhibition of JAK1/TYK2 signaling pathway in human primary T-cells assessed as reduction of IFN-alpha induced STAT1 phosphorylation. In kind it is cell-based, T-cell.
In another data set the target is JAK2/TYK2 (Homo sapiens, UniProt O60674+P29597). As to the kind of experiment: Inhibition of JAK2/TYK2 signaling pathway in human primary T-cells assessed as reduction of IL-12 induced STAT4 phosphorylation. In kind it is cell-based, T-cell.
JAK2/TYK2, sequence (O60674 whole entry): as the sequence (O60674 whole entry) above
JAK2/TYK2, sequence (P29597 whole entry): as the sequence (P29597 whole entry, the tested form may be a part) above
In data set [13] the target is T3, JAK3/JAK1. As to the kind of experiment: Inhibition of JAK1/JAK3 signaling pathway in human primary T-cells assessed as reduction of IL-2 induced cell proliferation. In kind it is cell-based.
The target of data set [14] is T3, JAK3/JAK1. Description: Inhibition of JAK1/JAK3 signaling pathway in human whole blood assessed as reduction of IL-2 induced STAT5 phosphorylation. The class given is tissue-based.
A short description of data set [15]: Inhibition of IL-2 stimulated IFN-gamma production in BALB/c mouse at 10 mg/kg, po pretreated for 30 mins followed by IL-2 stimulation and measured after 4 hrs by ELISA. The class given is functional. The note with it: time 4.5 hrs.
In data set [16] the target is Tyrosine-protein kinase JAK1 (Homo sapiens, UniProt P23458). As to the kind of experiment: Inhibition of human recombinant GST-tagged JAK1 catalytic domain (866 to 1154 residues) expressed in baculovirus expression system by Z'-lyte assay.
Tyrosine-protein kinase JAK1, sequence (P23458 whole entry, the tested form may be a part): as the sequence (P23458 whole entry) above
For data set [17], the target named is T1, Tyrosine-protein kinase JAK2. As to the kind of experiment: Inhibition of JAK2 signaling pathway in human UKE-1 cells assessed as reduction of cell proliferation. The class given is toxicity, cell-based.
The nature of data set [18]: Oral bioavailability in Sprague-Dawley rat 5 mg/kg. In kind it is ADME, organism-based. The note with it: in vivo.

T1 sequence (O60674 whole entry): as the sequence (O60674 whole entry) above
JAK1/TYK2, sequence (P23458 whole entry): as the sequence (P23458 whole entry) above
JAK1/TYK2, sequence (P29597 whole entry): as the sequence (P29597 whole entry, the tested form may be a part) above

Turning to `COc1cc(Nc2ncc(C)c(Nc3ccc4oc(=O)[nH]c4c3)n2)cc(C)c1F` [IFIDANCITINIB], the IC50 in [1] is 12 nM; in data set [2] it was 490 nM; against Cytochrome P450 3A4 [5], greater than 10000 nM; at JAK2/JAK1, 417 nM; in [8] it was 12 nM; on JAK3/JAK1 [9], 20 nM. Further, the concentration for half-maximal inhibition (IC50) in [11] is 923 nM; on Cytochrome P450 3A4 [12], greater than 10000 nM; at JAK1/TYK2, 8 nM; on JAK2/TYK2, 1190 nM; at JAK3/JAK1 [13], 20 nM; on JAK3/JAK1 [14], 451 nM. Further, the IC50 is 2.1 nM in data set [16] and 915 nM in [17]. In data set [3], the inhibition in vivo at 20 mg/kg came to 94%. Also, in data set [4], the inhibition in vivo at 5 mg/kg was 43%. The inhibition in vivo at 2.5 mg/kg in data set [6] turned out to be 8%. Besides, in data set [7], the clearance is 47 mL/min/kg. Besides, the Ki at Cytochrome P450 1A2 came to 1000 nM. Further, in data set [10], the inhibition in vivo at 40 mg/kg turned out to be 92%. For the same compound, the inhibition in vivo at 10 mg/kg in data set [15] stood at 75%. Further, the bioavailability in [18] was 28%.
